Ki data for 4 compounds are collected here from BindingDB's records for doi:10.1021/jm980035y (Cephalon, 1998).

Square brackets hold non-standard residues; d marks the D form. Peptide text beside a SMILES is read from it. * marks the point of attachment. Bn = c1ccc(C*)cc1; Ms = CS(=O)(=O)*

In the assay the target is Calpain-2 catalytic subunit (Sus scrofa). Put plainly: Inhibitory activity against Calpain-II receptor in porcine kidney.
For orientation: Ki means a dissociation constant, usually derived from enzyme kinetics or from competition with a known ligand. Read a high Ki as a looser hold on the target. In the case of `CC(OCc1ccccc1)[C@@H](NS(C)(=O)=O)C(=O)N[C@H](C=O)Cc1ccccc1` (stereo partly drawn) [(R)-N-((S)-1-Benzyl-2-oxo-ethyl)-3-benzyloxy-2-methanesulfonylamino-butyramide], the inhibition constant Ki was 7 nM. The compound `CS(=O)(=O)N[C@H](CSCc1ccccc1)C(=O)N[C@H](C=O)Cc1ccccc1` [(S)-N-((S)-1-Benzyl-2-oxo-ethyl)-3-benzylsulfanyl-2-methanesulfonylamino-propionamide] (Ms-[dC](Bn)-Phe-aldehyde) yielded an inhibition constant Ki of 7 nM. The compound `CS(=O)(=O)N[C@H](COCc1ccccc1)C(=O)N[C@H](C=O)Cc1ccc(OCc2ccccc2)cc1` [(R)-3-Benzyloxy-N-[(S)-1-(4-benzyloxy-benzyl)-2-oxo-ethyl]-2-methanesulfonylamino-propionamide] (Ms-[dS](Bn)-Tyr(Bn)-aldehyde) returned a Ki of 5 nM.

`CS(=O)(=O)N[C@H](COCc1ccccc1)C(=O)N[C@H](C=O)CCCCNS(=O)(=O)c1ccccc1` [(R)-N-((S)-5-Benzenesulfonylamino-1-formyl-pentyl)-3-benzyloxy-2-methanesulfonylamino-propionamide]: the Ki turned out to be 17 nM.
